Measured values taken from ChEMBL document CHEMBL6127078, “Discovery of 7-(1-methyl-1H-pyrazol-4-yl)-1,6-naphthyridine derivatives as potent inhibitors of rearranged during transfection (RET) and RET solvent-front mutants for overcoming selpercatinib resistance” (Eur J Med Chem, 2024).

Columns and labels:
[1] = target: Proto-oncogene tyrosine-protein kinase receptor Ret (Homo sapiens, UniProt P07949, V804L); assay: Inhibition of RET V804L mutant (unknown origin) by FRET-based ZLyte kinase assay
Chain of Proto-oncogene tyrosine-protein kinase receptor Ret (Homo sapiens, UniProt P07949, V804L) (P07949 29-1114 V804L limits assumed): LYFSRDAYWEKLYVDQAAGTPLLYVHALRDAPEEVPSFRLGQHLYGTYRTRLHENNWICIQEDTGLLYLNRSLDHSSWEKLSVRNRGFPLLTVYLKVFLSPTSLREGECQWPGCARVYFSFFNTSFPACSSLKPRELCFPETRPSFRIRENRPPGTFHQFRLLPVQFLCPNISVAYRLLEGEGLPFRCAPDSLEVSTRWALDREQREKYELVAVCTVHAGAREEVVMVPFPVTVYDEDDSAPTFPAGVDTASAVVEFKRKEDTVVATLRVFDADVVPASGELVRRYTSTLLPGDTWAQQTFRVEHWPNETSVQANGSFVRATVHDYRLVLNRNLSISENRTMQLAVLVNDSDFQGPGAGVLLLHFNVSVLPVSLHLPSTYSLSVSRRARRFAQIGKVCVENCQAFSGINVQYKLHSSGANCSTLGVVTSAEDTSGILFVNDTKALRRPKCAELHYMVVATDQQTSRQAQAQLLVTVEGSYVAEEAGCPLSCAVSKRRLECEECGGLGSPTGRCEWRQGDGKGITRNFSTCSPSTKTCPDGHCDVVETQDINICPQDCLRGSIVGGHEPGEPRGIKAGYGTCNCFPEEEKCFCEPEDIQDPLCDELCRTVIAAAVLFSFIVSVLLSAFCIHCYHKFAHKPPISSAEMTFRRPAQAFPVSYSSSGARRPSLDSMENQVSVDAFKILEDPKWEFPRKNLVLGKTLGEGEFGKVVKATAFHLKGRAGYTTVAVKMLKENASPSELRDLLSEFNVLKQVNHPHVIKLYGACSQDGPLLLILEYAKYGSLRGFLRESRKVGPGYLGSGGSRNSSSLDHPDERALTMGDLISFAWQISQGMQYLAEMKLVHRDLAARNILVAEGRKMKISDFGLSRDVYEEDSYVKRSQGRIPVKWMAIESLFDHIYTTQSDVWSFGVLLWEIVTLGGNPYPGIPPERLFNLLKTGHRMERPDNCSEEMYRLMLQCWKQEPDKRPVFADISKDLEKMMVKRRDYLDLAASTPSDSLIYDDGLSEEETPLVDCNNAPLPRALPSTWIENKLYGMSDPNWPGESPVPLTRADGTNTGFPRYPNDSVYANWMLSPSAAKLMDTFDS

[2] = target: Proto-oncogene tyrosine-protein kinase receptor Ret (Homo sapiens, UniProt P07949, M918T); assay: Inhibition of RET M918T mutant (unknown origin) by FRET-based ZLyte kinase assay
Chain of Proto-oncogene tyrosine-protein kinase receptor Ret (Homo sapiens, UniProt P07949, M918T) (P07949 29-1114 M918T limits assumed): as the sequence (P07949 29-1114 V804L limits assumed) above, with L776V, M890T counted along it

[3] = target: Proto-oncogene tyrosine-protein kinase receptor Ret (Homo sapiens, UniProt P07949); assay: Inhibition of wild type RET (unknown origin) by FRET-based ZLyte kinase assay
Chain of Proto-oncogene tyrosine-protein kinase receptor Ret (Homo sapiens, UniProt P07949) (P07949 whole entry): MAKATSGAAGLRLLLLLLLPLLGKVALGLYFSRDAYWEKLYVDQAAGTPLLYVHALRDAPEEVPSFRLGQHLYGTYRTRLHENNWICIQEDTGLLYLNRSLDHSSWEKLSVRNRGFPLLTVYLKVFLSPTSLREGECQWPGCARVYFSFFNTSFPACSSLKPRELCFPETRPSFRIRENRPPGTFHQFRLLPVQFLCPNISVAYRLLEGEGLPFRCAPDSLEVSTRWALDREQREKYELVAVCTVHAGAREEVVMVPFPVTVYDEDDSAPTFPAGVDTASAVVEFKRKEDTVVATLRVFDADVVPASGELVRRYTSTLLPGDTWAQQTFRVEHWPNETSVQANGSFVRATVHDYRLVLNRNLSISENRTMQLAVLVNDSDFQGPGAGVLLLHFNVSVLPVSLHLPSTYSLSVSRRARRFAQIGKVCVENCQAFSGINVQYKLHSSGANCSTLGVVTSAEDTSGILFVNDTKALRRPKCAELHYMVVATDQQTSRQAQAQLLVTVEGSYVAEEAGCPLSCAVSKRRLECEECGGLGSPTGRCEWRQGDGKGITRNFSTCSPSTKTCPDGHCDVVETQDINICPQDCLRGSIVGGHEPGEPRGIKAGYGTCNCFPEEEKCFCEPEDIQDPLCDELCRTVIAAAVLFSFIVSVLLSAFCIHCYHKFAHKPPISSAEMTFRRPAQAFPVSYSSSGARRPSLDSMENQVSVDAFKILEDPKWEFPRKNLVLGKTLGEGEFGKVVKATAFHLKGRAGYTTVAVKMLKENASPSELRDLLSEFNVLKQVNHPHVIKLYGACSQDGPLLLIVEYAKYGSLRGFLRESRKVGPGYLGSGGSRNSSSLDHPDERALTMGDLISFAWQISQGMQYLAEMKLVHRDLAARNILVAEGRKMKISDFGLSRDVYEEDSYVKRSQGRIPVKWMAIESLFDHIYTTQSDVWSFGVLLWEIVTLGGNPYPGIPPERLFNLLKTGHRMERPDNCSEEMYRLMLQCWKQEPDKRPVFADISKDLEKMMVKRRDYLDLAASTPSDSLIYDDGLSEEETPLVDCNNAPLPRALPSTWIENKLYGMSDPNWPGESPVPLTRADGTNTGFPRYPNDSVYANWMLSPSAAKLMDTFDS

[4] = target: Proto-oncogene tyrosine-protein kinase receptor Ret (Homo sapiens, UniProt P07949, G810R); assay: Inhibition of RET G810R mutant (unknown origin) by FRET-based ZLyte kinase assay
Chain of Proto-oncogene tyrosine-protein kinase receptor Ret (Homo sapiens, UniProt P07949, G810R) (P07949 29-1114 G810R limits assumed): as the sequence (P07949 29-1114 V804L limits assumed) above, with L776V, G782R counted along it

[5] = system: Proto-oncogene tyrosine-protein kinase receptor Ret (Homo sapiens), P07949 [G810R]; assay: Potency index, ratio of Vandetanib IC50 to test compound IC50 for inhibition of RET G810R mutant (unknown origin) by FRET-based ZLyte kinase assay
Chain of Proto-oncogene tyrosine-protein kinase receptor Ret (Homo sapiens), P07949 [G810R] (P07949 whole entry G810R): as the sequence (P07949 whole entry) above, with G810R counted along it

[6] = system: Proto-oncogene tyrosine-protein kinase receptor Ret (Homo sapiens), P07949 [V804L]; assay: Potency index, ratio of Vandetanib IC50 to test compound IC50 for inhibition of RET V804L mutant (unknown origin) by FRET-based ZLyte kinase assay
Chain of Proto-oncogene tyrosine-protein kinase receptor Ret (Homo sapiens), P07949 [V804L] (P07949 whole entry V804L): as the sequence (P07949 whole entry) above, with V804L counted along it

[7] = system: Proto-oncogene tyrosine-protein kinase receptor Ret (Homo sapiens), P07949 [G810R]; assay: Potency index, ratio of selpercatinib IC50 to test compound IC50 for inhibition of RET G810R mutant (unknown origin) by FRET-based ZLyte kinase assay
BaF3 [8] = assay: Antiproliferative activity against mouse BaF3 cells harbouring KIF5B-RET wild type assessed as inhibition of cell viability; assay type: functional, cell-based
BaF3 [9] = assay: Antitumor activity against mouse BaF3 cells harbouring KIF5B-RET-wild type xenografted in mouse model assessed as tumor growth inhibition at 10 mg/kg BID measured upto 14 days relative to control; assay type: functional; settings: BaF3, 336 h, time <= 14 day, read-out: TGI
BaF3 [10] = assay: Antiproliferative activity against mouse BaF3 cells harbouring KIF5B-RET G810R mutant assessed as inhibition of cell viability; assay type: functional, cell-based
BaF3 [11] = assay: Antitumor activity against mouse BaF3 cells harbouring KIF5B-RET G810R mutant xenografted in mouse model assessed as tumor growth inhibition at 10 mg/kg BID measured upto 14 days relative to control; assay type: functional; settings: BaF3, 336 h, time <= 14 day, read-out: TGI
BaF3 [12] = assay: Antiproliferative activity against mouse BaF3 cells harbouring CCDC6-RET wild type assessed as inhibition of cell viability; assay type: functional, cell-based
BaF3 [13] = assay: Antiproliferative activity against mouse BaF3 cells harbouring KIF5B-RET V804L mutant assessed as inhibition of cell viability; assay type: functional, cell-based
BaF3 [14] = assay: Antiproliferative activity against mouse BaF3 cells harbouring CCDC6-RET G810R mutant assessed as inhibition of cell viability; assay type: functional, cell-based

Compound	IC50 [1]	IC50 [2]	IC50 [3]	IC50 [4]	further results
COc1ccc(CN2C3CC2CN(c2ccc(-c4nc(-c5ccc(F)cc5)cc5ncccc45)cn2)C3)cn1	517 nM	408 nM	242 nM		
COc1ccc(CN2C3CC2CN(c2ccc(-c4nc(-c5ccn(C)n5)cc5ncccc45)cn2)C3)cn1	21.1 nM	50.4 nM	49.4 nM	96.7 nM	
COc1ccc(CN2C3CC2CN(c2ccc(-c4nc(Cl)cc5ncccc45)cn2)C3)cn1	57.2 nM	58.4 nM	69.3 nM	229 nM	
COc1ccc(CN2C3CC2CN(c2ccc(-c4cccc5nccnc45)cn2)C3)cn1	135 nM	141 nM	172 nM		
COc1ccc(CN2C3CC2CN(c2ccc(-c4nc(C)cc5ncccc45)cn2)C3)cn1	18.6 nM	33.6 nM	28.5 nM	416 nM	
COc1ccc(CN2C3CC2CN(c2ccc(-c4nc(-c5cnn(C)c5)cc5ncccc45)cn2)C3)cc1[N+](=O)[O-]	95.2 nM	127 nM	247 nM		
COc1ccc(CN2C3CC2CN(c2ccc(-c4nc(-c5cnn(C)c5)cc5ncccc45)cn2)C3)cc1N	86.4 nM	176 nM	166 nM		
COc1ccc(CN2C3CC2CN(c2ccc(-c4nc(-c5cnn(C)c5)cc5ncccc45)cn2)C3)cc1Cl	8.5 nM	11.3 nM	25.1 nM	85.9 nM	
Cc1ccc(CN2C3CC2CN(c2ccc(-c4nc(-c5cnn(C)c5)cc5ncccc45)cn2)C3)cn1	14.4 nM	16.2 nM	12.5 nM	437 nM	
COc1ccc(CN2C3CC2CN(c2ccc(-c4nc(-c5cnn(C)c5)cc5ncccc45)cn2)C3)cc1	3.1 nM	4.7 nM	7.6 nM	114 nM	
COc1ccc(CN2C3CC2CN(c2ccc(-c4cccc5cnccc45)cn2)C3)cn1	786 nM	615 nM	591 nM		
COc1ccc(CC(=O)N2C3CC2CN(c2ccc(-c4nc(-c5cnn(C)c5)cc5ncccc45)cn2)C3)cn1	2.6 nM	4.9 nM	5.7 nM	132 nM	
Cn1cc(-c2cc3ncccc3c(-c3ccc(N4CC5CC(C4)N5Cc4cccnc4)nc3)n2)cn1	41.1 nM	33.5 nM	26.7 nM	371 nM	
COc1ccc(CN2C3CC2CN(c2ccc(-c4cccc5ncccc45)cn2)C3)cn1	285 nM	304 nM	198 nM		
COc1ccc(CN2C3CC2CN(c2ccc(-c4cccc5c4OCCO5)cn2)C3)cn1	> 1000 nM	> 1000 nM	> 1000 nM		
Cn1cc(-c2cc3ncccc3c(-c3ccc(N4CC5CC(C4)N5C(=O)Cc4cccc(Cl)c4)nc3)n2)cn1	4 nM	5.9 nM	9.1 nM	180 nM	
COc1ccc(CN2C3CC2CN(c2ccc(-c4cccc5ncncc45)cn2)C3)cn1	70.4 nM	91.5 nM	86.3 nM	307 nM	

Compound	IC50 [1]	IC50 [2]	IC50 [3]	IC50 [4]	further results
COc1ccc(CN2C3CC2CN(c2ccc(-c4nccc5ncccc45)cn2)C3)cn1	42.2 nM	35.8 nM	57.6 nM	186 nM	Ratio IC50 [5]: 4; Ratio IC50 [6]: 16
Cn1cc(-c2cc3ncccc3c(-c3ccc(N4CC5CC(C4)N5C(=O)CC4CCOCC4)nc3)n2)cn1	91.4 nM	54.9 nM	62.2 nM		
COc1ccc(CN2C3CC2CN(c2ccc(-c4nc(-c5cnn(C)c5)cc5ncccc45)cn2)C3)cn1	0.4 nM	1.2 nM	3.8 nM	56.2 nM	Ratio IC50 [7]: 4
COc1ccc(CN2C3CC2CN(c2ccc(-c4nc(-c5cn[nH]c5)cc5ncccc45)cn2)C3)cn1	1.1 nM	6.5 nM	5.9 nM	69.1 nM	Ratio IC50 [7]: 4
COc1ccc(CN2C3CC2CN(c2ccc(-c4nc(-c5cnn(C)c5)cc5ncccc45)cn2)C3)cc1Br	13.7 nM	17.2 nM	41.3 nM	107 nM	
Cn1cc(-c2cc3ncccc3c(-c3ccc(N4CC5CC(C4)N5Cc4ccc(F)nc4)nc3)n2)cn1	5.6 nM	9.3 nM	16.8 nM	237 nM	
Cn1cc(-c2cc3ncccc3c(-c3ccc(N4CC5CC(C4)N5C(=O)CN4CCOCC4)nc3)n2)cn1	121 nM	107 nM	112 nM		
Cn1cc(-c2cc3ncccc3c(-c3ccc(N4CC5CC(C4)N5C(=O)Cc4cccc(F)c4)nc3)n2)cn1	2.3 nM	3 nM	4.8 nM	149 nM	
COc1ccc(CN2C3CC2CN(c2ccc(-c4nc(-c5cnn(C)c5)cc5ncccc45)cn2)C3)cc1F	0.3 nM	0.6 nM	5.5 nM	37.8 nM	Ratio IC50 [7]: 6
Cn1cc(-c2cc3ncccc3c(-c3ccc(N4CC5CC(C4)N5C(=O)Cc4cc(F)cc(F)c4)nc3)n2)cn1	4.7 nM	6.7 nM	6.7 nM	221 nM	
COc1ccc(CN2C3CC2CN(c2ccc(-c4nc(-c5cnn(C)c5)cc5ncccc45)cn2)C3)cc1C(F)(F)F	22.6 nM	14.7 nM	37.5 nM	116 nM	
COc1ccc(CN2C3CC2CN(c2ccc(-c4nc(-c5ccncc5)cc5ncccc45)cn2)C3)cn1	328 nM	215 nM	166 nM		
COc1ccc(CN2C3CC2CN(c2ccc(-c4nc(C5CC5)cc5ncccc45)cn2)C3)cn1	12.5 nM	17.3 nM	15.7 nM	538 nM	
COc1ccc(CN2C3CC2CN(c2ccc(-c4nc(-c5cc[nH]n5)cc5ncccc45)cn2)C3)cn1	55.7 nM	49.7 nM	68.2 nM	109 nM	
Cn1cc(-c2cc3ncccc3c(-c3ccc(N4CC5CC(C4)N5Cc4ccc(Cl)nc4)nc3)n2)cn1	2.3 nM	5.1 nM	9.8 nM	361 nM	
COc1ccc(CN2C3CC2CN(c2ccc(-c4cc(OCC(C)(C)O)cn5ncc(C#N)c45)cn2)C3)cn1 [SELPERCATINIB]					IC50 (BaF3 [8]): 8.2 nM; inhibition in vivo at 10 mg/kg (BaF3 [9]): 89%; IC50 (BaF3 [10]): 2170 nM; inhibition in vivo at 10 mg/kg (BaF3 [11]): 20%; IC50 (BaF3 [12]): 9.5 nM; IC50 (BaF3 [13]): 17.8 nM; IC50 (BaF3 [14]): 896 nM
